The record followed here is patent publication US20220378794A1 (Sinopia Biosciences, Inc., priority 2019, published 2022).

The test system of the assay is chronic low-dose MPTP lesioned non-human primate model of cognitive impairment. The conditions noted are these: levodopa 5-20 mg/kg (groups 6-8); in particular shorter delay periods DP1 and DP2; vs vehicle.

Turning to `N[C@@H](Cc1ccc(O)c(O)c1)C(=O)O` [levodopa], the “accuracy of VDR test” value was “trend toward completing the VDR test with lower accuracy”.
